Data on five compounds can be found in patent publication US20260001928A1 (CORTERIA PHARMACEUTICALS, priority 2022, published 2026).

One experiment has as its target T1, CFR1R receptor (Homo sapiens, UniProt P34998).
T1 construct: host or cells: CHO-K1 (clone 2)
T1 sequence (P34998 24-415): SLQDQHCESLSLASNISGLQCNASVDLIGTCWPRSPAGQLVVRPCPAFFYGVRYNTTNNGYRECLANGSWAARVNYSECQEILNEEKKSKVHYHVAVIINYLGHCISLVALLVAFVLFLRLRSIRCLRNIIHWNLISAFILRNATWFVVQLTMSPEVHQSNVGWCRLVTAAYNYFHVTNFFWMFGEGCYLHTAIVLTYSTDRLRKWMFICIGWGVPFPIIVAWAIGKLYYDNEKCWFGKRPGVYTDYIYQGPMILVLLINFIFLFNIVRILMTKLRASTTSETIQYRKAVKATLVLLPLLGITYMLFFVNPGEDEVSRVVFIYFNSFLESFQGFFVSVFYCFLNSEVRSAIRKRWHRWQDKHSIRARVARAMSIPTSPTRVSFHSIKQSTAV
The experiment in a line: Activity at anti-target CFR1R receptor, cAMP assay in CRF1R-overexpression CHO-K1 cells. The class given is cell-based. The note with it: 100% = Sauvagine at 100 nM. The method in brief:
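Signal is normalised to 100 nM Sauvagine, taken as 100% activation, in clone 2 cells plated at a final 4000 cells/well from frozen stocks.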
A general note: cAMP levels reflect the balance of adenylyl cyclase and phosphodiesterase activity.

For a further experiment, the target named is T2, human CRF2a receptor (Homo sapiens, UniProt Q13324).
T2 construct: expressed in transfected cells; host or cells: TeloHEAC cells
T2 sequence (Q13324 1-411): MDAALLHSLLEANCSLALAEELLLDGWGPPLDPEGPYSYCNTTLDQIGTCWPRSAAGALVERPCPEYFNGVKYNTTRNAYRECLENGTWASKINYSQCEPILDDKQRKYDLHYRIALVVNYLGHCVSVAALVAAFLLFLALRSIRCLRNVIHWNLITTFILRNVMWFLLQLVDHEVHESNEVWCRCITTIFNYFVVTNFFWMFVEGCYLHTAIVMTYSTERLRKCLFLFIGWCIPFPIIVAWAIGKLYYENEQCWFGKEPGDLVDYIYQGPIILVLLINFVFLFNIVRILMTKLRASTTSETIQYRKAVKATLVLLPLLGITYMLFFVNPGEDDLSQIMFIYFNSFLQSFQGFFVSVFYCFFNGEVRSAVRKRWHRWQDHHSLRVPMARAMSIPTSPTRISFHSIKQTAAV
The experiment in a line: Activity at human CRF2a receptor, cAMP functional assay in TeloHEAC cells. The class given is cell-based. The note with it: TeloHEAC cells stably expressing human CRF2a receptor, relative to urocortin 2 (100 nM = 100%). On the procedure: Agonism of compounds for human corticotropin-releasing factor 2a (CRF2a receptor) was determined by a functional assay measuring cAMP modulation upon treatment of TeloHEAC cells stably expressing human CRF2a receptor. Compounds were dissolved at 0.5 mM in 100% DMSO and serially diluted (1:2) in 100% DMSO for 16 dilutions. 20 nL of each dilution was then transferred to 384-well assay plate using an acoustic droplet ejection instrument. 5 μL of compound buffer (1×HBSS; 20 mM HEPES,) were then added to each well. Prior to use, frozen cells were thawed quickly at 37° C. and washed (5 min at 900 rpm) with 20 mL cell buffer (1×HBSS; 20 mM HEPES). Cells were resuspended in cell buffer added with 2 mM IBMX and adjusted to a cell density of […]. 5 μL cells (final dell density: 10000 cells/well) were dispensed in the compound-containing 384-well assay plate and incubated for 30 minutes 37° C. The cAMP level in treated cells was determined using the Cisbio 62AM4PEC kit according to manufacturer's instruction. Finally, plates were incubated for 1 h at room temperature before measuring the fluorescence ratio between 665/620 nm. The percent activity value (E %) was calculated by setting 100 nM of urocortin 2 (UCN2) as 100%. The in vitro potency of the compounds was quantified by determining the concentrations that caused 50% activation of maximal response (EC50) relative to urocortin 2.

*1 amine or outer side, *2 acyl side, *3 side chain or, on linkers, in order; H or OH if unused. Where a SMILES comes first, the peptide text is derived from it. Side-chain parts run from the residue outwards. [ ]: non-standard residue; d: D form. The star is where a group is joined. C16 diacid = O=C(O)CCCCCCCCCCCCCCC(=O)*; γGlu = O=C(O)[C@H](CCC(=O)[*:2])N[*:1]; NMeI = CC[C@H](C)[C@H](NC)C(=O)O; Isovaleryl = CC(C)CC(=O)*; Pentanoyl = CCCCC(=O)*; Propionyl = CCC(=O)*; Butyryl = CCCC(=O)*

Take `CC[C@H](C)[C@H](NC)C(=O)N[C@H](C(=O)N[C@@H](CC(C)C)C(=O)N[C@@H](CO)C(=O)N[C@@H](CC(C)C)C(=O)N[C@@H](CC(=O)O)C(=O)N[C@@H](C(=O)N1CCC[C@H]1C(=O)N[C@H](C(=O)N[C@@H](CCCCN)C(=O)N[C@@H](CC(C)C)C(=O)N[C@@H](CCCCNC(=O)CC[C@H](NC(=O)CCCCCCCCCCCCCCC(=O)O)C(=O)O)C(=O)N[C@@H](CCC(N)=O)C(=O)N[C@H](C(=O)N[C@@H](CC(C)C)C(=O)N[C@@H](CC(C)C)C(=O)N[C@@H](CCCCN)C(=O)N[C@@H](CCC(N)=O)C(=O)N[C@@H](CCC(=O)O)C(=O)N[C@@H](CCCNC(=N)N)C(=O)N[C@@H](CCC(N)=O)C(=O)N[C@@H](CCCCN)C(=O)N[C@@H](CCCCN)C(=O)N[C@@H](CCC(N)=O)C(=O)N[C@@H](CCCNC(=N)N)C(=O)N[C@@H](CCC(=O)O)C(=O)N[C@@H](CCC(N)=O)C(=O)N[C@@H](C)C(=O)N[C@@H](CCC(=O)O)C(=O)N[C@@H](CCCCN)C(=O)N[C@@H](CC(N)=O)C(=O)N[C@@H](CCCCN)C(=O)N[C@@H](CCC(N)=O)C(=O)N[C@H](C(=O)N[C@@H](CC(C)C)C(=O)N[C@@H](CCC(=O)O)C(=O)N[C@@H](CCC(N)=O)C(=O)N[C@H](C(N)=O)C(C)C)[C@@H](C)CC)[C@@H](C)CC)[C@@H](C)CC)C(C)C)C(C)C` [SEQ ID No. 5, reference compound] (H-[NMeI]VLSLD[dV]PIKLK([γGlu-C16 diacid])QILLKQERQKKQREQAEKNKQILEQV-NH2): the “Emax (% I)” value at CFR1R receptor is 48 % I. For the same compound, the EC50 (commonly the concentration that produces a half-maximal response) on human CRF2a receptor worked out at 0.09 nM.
For `CCC(=O)N[C@H](C(=O)N[C@@H](CC(C)C)C(=O)N[C@@H](CO)C(=O)N[C@@H](CC(C)C)C(=O)N[C@@H](CC(=O)O)C(=O)N[C@@H](C(=O)N1CCC[C@H]1C(=O)N[C@H](C(=O)N[C@@H](CCCCN)C(=O)N[C@@H](CC(C)C)C(=O)N[C@@H](CCCCNC(=O)CC[C@H](NC(=O)CCCCCCCCCCCCCCC(=O)O)C(=O)O)C(=O)N[C@@H](CCC(N)=O)C(=O)N[C@H](C(=O)N[C@@H](CC(C)C)C(=O)N[C@@H](CC(C)C)C(=O)N[C@@H](CCCCN)C(=O)N[C@@H](CCC(N)=O)C(=O)N[C@@H](CCC(=O)O)C(=O)N[C@@H](CCCNC(=N)N)C(=O)N[C@@H](CCC(N)=O)C(=O)N[C@@H](CCCCN)C(=O)N[C@@H](CCCCN)C(=O)N[C@@H](CCC(N)=O)C(=O)N[C@@H](CCCNC(=N)N)C(=O)N[C@@H](CCC(=O)O)C(=O)N[C@@H](CCC(N)=O)C(=O)N[C@@H](C)C(=O)N[C@@H](CCC(=O)O)C(=O)N[C@@H](CCCCN)C(=O)N[C@@H](CC(N)=O)C(=O)N[C@@H](CCCCN)C(=O)N[C@@H](CCC(N)=O)C(=O)N[C@H](C(=O)N[C@@H](CC(C)C)C(=O)N[C@@H](CCC(=O)O)C(=O)N[C@@H](CCC(N)=O)C(=O)N[C@H](C(N)=O)C(C)C)[C@@H](C)CC)[C@@H](C)CC)[C@@H](C)CC)C(C)C)C(C)C` [compound 6] (Propionyl-VLSLD[dV]PIKLK([γGlu-C16 diacid])QILLKQERQKKQREQAEKNKQILEQV-NH2) the same measures were 56 % I and 0.09 nM.
Taken in the same sequence, the figures for `CCCC(=O)N[C@H](C(=O)N[C@@H](CC(C)C)C(=O)N[C@@H](CO)C(=O)N[C@@H](CC(C)C)C(=O)N[C@@H](CC(=O)O)C(=O)N[C@@H](C(=O)N1CCC[C@H]1C(=O)N[C@H](C(=O)N[C@@H](CCCCN)C(=O)N[C@@H](CC(C)C)C(=O)N[C@@H](CCCCNC(=O)CC[C@H](NC(=O)CCCCCCCCCCCCCCC(=O)O)C(=O)O)C(=O)N[C@@H](CCC(N)=O)C(=O)N[C@H](C(=O)N[C@@H](CC(C)C)C(=O)N[C@@H](CC(C)C)C(=O)N[C@@H](CCCCN)C(=O)N[C@@H](CCC(N)=O)C(=O)N[C@@H](CCC(=O)O)C(=O)N[C@@H](CCCNC(=N)N)C(=O)N[C@@H](CCC(N)=O)C(=O)N[C@@H](CCCCN)C(=O)N[C@@H](CCCCN)C(=O)N[C@@H](CCC(N)=O)C(=O)N[C@@H](CCCNC(=N)N)C(=O)N[C@@H](CCC(=O)O)C(=O)N[C@@H](CCC(N)=O)C(=O)N[C@@H](C)C(=O)N[C@@H](CCC(=O)O)C(=O)N[C@@H](CCCCN)C(=O)N[C@@H](CC(N)=O)C(=O)N[C@@H](CCCCN)C(=O)N[C@@H](CCC(N)=O)C(=O)N[C@H](C(=O)N[C@@H](CC(C)C)C(=O)N[C@@H](CCC(=O)O)C(=O)N[C@@H](CCC(N)=O)C(=O)N[C@H](C(N)=O)C(C)C)[C@@H](C)CC)[C@@H](C)CC)[C@@H](C)CC)C(C)C)C(C)C` [compound 7] (Butyryl-VLSLD[dV]PIKLK([γGlu-C16 diacid])QILLKQERQKKQREQAEKNKQILEQV-NH2) were 59 % I and 0.06 nM.
For `CCCCC(=O)N[C@H](C(=O)N[C@@H](CC(C)C)C(=O)N[C@@H](CO)C(=O)N[C@@H](CC(C)C)C(=O)N[C@@H](CC(=O)O)C(=O)N[C@@H](C(=O)N1CCC[C@H]1C(=O)N[C@H](C(=O)N[C@@H](CCCCN)C(=O)N[C@@H](CC(C)C)C(=O)N[C@@H](CCCCNC(=O)CC[C@H](NC(=O)CCCCCCCCCCCCCCC(=O)O)C(=O)O)C(=O)N[C@@H](CCC(N)=O)C(=O)N[C@H](C(=O)N[C@@H](CC(C)C)C(=O)N[C@@H](CC(C)C)C(=O)N[C@@H](CCCCN)C(=O)N[C@@H](CCC(N)=O)C(=O)N[C@@H](CCC(=O)O)C(=O)N[C@@H](CCCNC(=N)N)C(=O)N[C@@H](CCC(N)=O)C(=O)N[C@@H](CCCCN)C(=O)N[C@@H](CCCCN)C(=O)N[C@@H](CCC(N)=O)C(=O)N[C@@H](CCCNC(=N)N)C(=O)N[C@@H](CCC(=O)O)C(=O)N[C@@H](CCC(N)=O)C(=O)N[C@@H](C)C(=O)N[C@@H](CCC(=O)O)C(=O)N[C@@H](CCCCN)C(=O)N[C@@H](CC(N)=O)C(=O)N[C@@H](CCCCN)C(=O)N[C@@H](CCC(N)=O)C(=O)N[C@H](C(=O)N[C@@H](CC(C)C)C(=O)N[C@@H](CCC(=O)O)C(=O)N[C@@H](CCC(N)=O)C(=O)N[C@H](C(N)=O)C(C)C)[C@@H](C)CC)[C@@H](C)CC)[C@@H](C)CC)C(C)C)C(C)C` [compound 8] (Pentanoyl-VLSLD[dV]PIKLK([γGlu-C16 diacid])QILLKQERQKKQREQAEKNKQILEQV-NH2) the same measures were 50 % I and 0.14 nM.
With `CC[C@H](C)[C@H](NC(=O)[C@H](CCC(N)=O)NC(=O)[C@H](CCCCNC(=O)CC[C@H](NC(=O)CCCCCCCCCCCCCCC(=O)O)C(=O)O)NC(=O)[C@H](CC(C)C)NC(=O)[C@H](CCCCN)NC(=O)[C@@H](NC(=O)[C@@H]1CCCN1C(=O)[C@H](NC(=O)[C@H](CC(=O)O)NC(=O)[C@H](CC(C)C)NC(=O)[C@H](CO)NC(=O)[C@H](CC(C)C)NC(=O)[C@@H](NC(=O)CC(C)C)C(C)C)C(C)C)[C@@H](C)CC)C(=O)N[C@@H](CC(C)C)C(=O)N[C@@H](CC(C)C)C(=O)N[C@@H](CCCCN)C(=O)N[C@@H](CCC(N)=O)C(=O)N[C@@H](CCC(=O)O)C(=O)N[C@@H](CCCNC(=N)N)C(=O)N[C@@H](CCC(N)=O)C(=O)N[C@@H](CCCCN)C(=O)N[C@@H](CCCCN)C(=O)N[C@@H](CCC(N)=O)C(=O)N[C@@H](CCCNC(=N)N)C(=O)N[C@@H](CCC(=O)O)C(=O)N[C@@H](CCC(N)=O)C(=O)N[C@@H](C)C(=O)N[C@@H](CCC(=O)O)C(=O)N[C@@H](CCCCN)C(=O)N[C@@H](CC(N)=O)C(=O)N[C@@H](CCCCN)C(=O)N[C@@H](CCC(N)=O)C(=O)N[C@H](C(=O)N[C@@H](CC(C)C)C(=O)N[C@@H](CCC(=O)O)C(=O)N[C@@H](CCC(N)=O)C(=O)N[C@H](C(N)=O)C(C)C)[C@@H](C)CC` [compound 9] (Isovaleryl-VLSLD[dV]PIKLK([γGlu-C16 diacid])QILLKQERQKKQREQAEKNKQILEQV-NH2), the “Emax (% I)” value at CFR1R receptor was found to be 77 % I. At human CRF2a receptor, this compound yielded a concentration for a half-maximal effect (EC50) of 0.16 nM.
